The subject of data set [1] is patients with macular degeneration. As to the kind of experiment: Macular degeneration clinical study (adjuvant to verteporfin photodynamic therapy). The data set is classed as in vivo. The note with it: about 300 mg/day for 20 weeks as adjuvant to verteporfin photodynamic therapy. Here is the method:
Forty patients with macular degeneration are divided into two groups. The first group receives conventional treatment for closing the leaking choroidal vessels (characteristic of this disease) by photodynamic therapy with verteporfin (see for example Ophthalmol. 117:1329-1345 (1999). The second group receives the same conventional therapy with verteporfin with 1-(5-(1H-1,2,4-triazol-5-yl)(1H-indazol-3-yl))-3-(2-piperidylethoxy)benzene at about 300 mg/day as an adjuvant for 20 weeks.
The first group, without 1-(5-(1H 1,2,4-triazol-5-yl)( 1 H-indazol-3-yl))-3-(2-piperidylethoxy)benzene, however will experience progressive reperfusion of the ablated vessels several weeks after treatment. Progressive visual loss follows which requires the photodynamic therapy to be repeated.

Data set [2] is described as follows: Brain-blood plasma distribution in vivo. On the set-up: species or system Sprague-Dawley rats. The note with it: rat, 10 mg/kg intravenously, 2 hr post-dose. Here is the method: 5-Amino-anthra(9,1-cd)isothiazol-6-one was administered intravenously (10 mg/kg) into the veins of Sprague-Dawley rats. After 2 hr, blood samples were obtained from the animals and their vascular systems were perfused with approximately 100 mL of saline to rid their brains of blood. The brains were removed from the animals, weighed, and homogenized in a 50 mL conical tube containing 10 equivalents (w/v) of methanol/saline (1:1) using a Tissue Tearer (Fischer Scientific). The homogenized material was extracted by adding 600 μL of cold methanol to 250 μL of brain homogenate vortexed for 30 sec and subjected to centrifugation for 5 min. After centrifugation, 600 μL of the resulting supernatant was transferred to a clean tube and evaporated at room temperature under reduced pressure to provide a pellet. […] The brain homogenate analysis samples, plasma analysis samples, and standard analysis samples were analyzed and compared using HPLC by injecting 100 μL of a sample onto a 5 μm C-18 Luna column (4.6 mm×150 mm, commercially available from Phenomenex of Torrance, Calif.) and eluting at 1 mL/min with a linear gradient of 30% aqueous acetonitrile containing 0.1% trifluoroacetic acid to 90% aqueous acetonitrile containing 0.1% trifluoroacetic acid over 8 minutes and holding at 90% aqueous acetonitrile containing 0.1 % trifluoroacetic acid for 3 min. with absorbance detection at 450 nm. […]

Data set [3] can be described thus: Solubility in aqueous media. The data set is classed as physicochemical.
In data set [4] the test system is rat ventral mesencephalan neurons. As to the kind of experiment: [3H]Dopamine cell culture assay (6-OHDA neurotoxicity). The note with it: 6-OHDA 30 μM, uptake 22 hours later. Type of data set: cell-based. Here is the method:
Cultures of dopaminergic neurons were prepared according to a modification of the procedure described by Raymon and Leslie (J. Neurochem. 62:1015-1024, 1994). Time-mated pregnant rats were sacrificed on embyronic day 14-15 (crown rump length 11-12 mm) and the embryos removed by cesarean section. The ventral mesencephalon, containing the dopaminergic neurons, was dissected from each embryo. Tissue pieces from approximately 48 embryos were pooled and dissociated both enzymatically and mechanically. An aliquot from the resulting cell suspension was counted and the cells were plated in high glucose DMEM/F12 culture medium with 10% fetal bovine serum at a density of 1×10^5 cells/well of a Biocoat poly-D-lysine-coated 96-well plate. The day following plating was considered 1 day in vitro (DIV). Cells were maintained in a stable environment at 37° C., 95% humidity, and 5% CO2. A partial medium change was performed at 3 DIV. […]
[^3H]Dopamine uptake is used as a measure of the health and integrity of dopaminergic neurons in culture (Prochiantz et al., PNAS 76: 5387-5391, 1979). […] Briefly, cells treated with 6-OHDA in the presence and absence of 5-amino-anthra(9, 1-cd)isothiazol-6-one were assessed in the uptake assay 22 hrs after exposure to 6-OHDA. […] Radioactivity was removed and the cultures were washed 3x with ice cold PBS. […]

As to `c1cc(OCCC2CCCCN2)cc(-c2n[nH]c3ccc(-c4ncn[nH]4)cc23)c1` (stereo not shown) [1-(5-(1H-1,2,4-triazol-5-yl)(1H-indazol-3-yl))-3-(2-piperidylethoxy)benzene], the “effect on neovascular cascade / duration of photodynamic therapy effect” value in data set [1] is given as “neovascular cascade is sufficiently hindered”.
For `Nc1ccc2snc3c2c1C(=O)c1ccccc1-3` [5-amino-anthra(9,1-cd)isothiazol-6-one], the brain-drug concentration entry in data set [2] is recorded as “approximately 65 nmole/g”. Further, the “solubility in aqueous media” value in data set [3] is on record as “limited solubility”. In addition, in data set [4], the “protection of dopaminergic neurons from 6-OHDA ([3H]dopamine uptake)” value is reported as “protects rat ventral mesencephalan neurons from the toxic effects of 6-OHDA”.

The values above are taken from US20040092568A1, “Methods for the treatment, prevention and management of macular degeneration” (priority 2002, published 2004).
